The record followed here is ChEMBL document CHEMBL1201862, “PubChem BioAssay data set” (2004).

Test systems include SNB-75; SNB-19; NCI-H23; HOP-62; SK-MEL-2; OVCAR-3; HT-29; Malme-3M; SF-295; OVCAR-5; BT-549; SF-539; HL-60; A549; UO-31; HCT-15; 786-0; K562; NCI-H226.
What all share (assay): DTP human tumour cell line panel, 48 h

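Values below derive from 48-hour exposures of cells grown in 96-well plates, with endpoints linearly interpolated between the two concentrations bracketing the appropriate inhibition level. The concentration for 50% growth inhibition is given as GI50.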 Active and inactive are the calls of the source. Rule as the data show it: active = GI50 up to about 1.1 µM and inactive = higher.

For the compound `CC1(C)O[C@H]2Cn3c(c(C#N)c4ccccc43)[C@H]2O1`, the GI50 in the test on SNB-75 is 39.8 µM (inactive); with SNB-19, > 100 µM (inactive); in the test with NCI-H23, > 100 µM (inactive); in the test with HOP-62 it was > 100 µM (inactive); with SK-MEL-2 it was > 100 µM (inactive); in the test on OVCAR-3 it was > 100 µM (inactive). Also, the GI50 in the test on HT-29, in the test with Malme-3M, in the test with SF-295, with OVCAR-5, in the test on BT-549 and with SF-539 was > 100 µM (inactive) throughout. Further, the GI50 in the test on HL-60 is > 100 µM (inactive); with A549, > 100 µM (inactive); in the test with UO-31, > 100 µM (inactive); in the test with HCT-15, greater than 100 µM; in the test with 786-0, > 100 µM (inactive).

On to `S=c1[nH]nc(Cn2c3ccc(Br)cc3c3nc4ccccc4nc32)n1C1CCCCC1`, for which the GI50 in the test with SNB-75 is 52.2 µM (inactive); in the test with SNB-19, 43.5 µM (inactive); with NCI-H23 it was 13.8 µM (inactive); in the test on HOP-62 it was 18.6 µM (inactive); with SK-MEL-2 it was 23.1 µM (inactive); in the test with OVCAR-3, 18.5 µM (inactive). Besides, the GI50 is 25.9 µM (inactive) in the test with K562; 16.1 µM (inactive) in the test with HT-29; 29.7 µM (inactive) in the test on Malme-3M; 16.7 µM (inactive) in the test on SF-295; 32.5 µM (inactive) with OVCAR-5; 52.2 µM (inactive) in the test on BT-549. In addition, the GI50 in the test on SF-539 is 18.6 µM (inactive); in the test with NCI-H226 it was 20.5 µM (inactive); in the test on A549, 21.2 µM (inactive); with UO-31 it was 18.2 µM (inactive); in the test with HCT-15 it was 22 µM; with 786-0 it was 20.7 µM (inactive).

For the compound `CC(C)(C)C(=O)C(C(c1ccccc1)N1CCOCC1)N1CCOCC1` (stereo not given), the GI50 in the test on SNB-75, in the test on SNB-19, with NCI-H23, in the test with HOP-62, with SK-MEL-2 and in the test on OVCAR-3 was > 100 µM (inactive) in each case. The GI50 in the test with K562, in the test on HT-29, in the test with Malme-3M, with SF-295, in the test on OVCAR-5 and in the test with BT-549 was > 100 µM (inactive) each time. Also, the GI50 in the test on A549 is > 100 µM (inactive); in the test with UO-31, > 100 µM (inactive); in the test on HCT-15, greater than 100 µM; with 786-0 it was > 100 µM (inactive).

Regarding `CC1SC2(CCCCC2)N(NC(=O)CSc2nc3ccc(Cl)cc3c(=O)n2-c2ccccc2)C1=O` (stereo not given), the GI50 in the test with SNB-75 is 20.7 µM (inactive); with SNB-19, 24.1 µM (inactive); with NCI-H23, 23.2 µM (inactive); in the test with HOP-62, 18 µM (inactive); with SK-MEL-2 it was 17.3 µM (inactive); in the test on OVCAR-3, 15.6 µM (inactive). Besides, the GI50 in the test with K562 was 19.5 µM (inactive); in the test with HT-29, 16.6 µM (inactive); in the test with Malme-3M, 30.8 µM (inactive); in the test with SF-295, 18.5 µM (inactive); in the test with OVCAR-5, 25.7 µM (inactive); in the test on BT-549 it was 20.2 µM (inactive). Further, the GI50 is 17.3 µM (inactive) in the test with SF-539; 23.6 µM (inactive) with HL-60; 28.8 µM (inactive) in the test with A549; 21.1 µM (inactive) in the test with UO-31; 18.7 µM with HCT-15; 18.2 µM (inactive) with 786-0.

For `CN(C)c1ccc(C(c2ccc(Cl)cc2)c2ccc(N(C)C)cc2)cc1`, the GI50 in the test with SNB-75, in the test on SNB-19, in the test on NCI-H23, in the test with HOP-62, with SK-MEL-2 and in the test with OVCAR-3 was > 100 µM (inactive) each time. Besides, the GI50 was 83 µM (inactive) with K562; > 100 µM (inactive) in the test on HT-29; 30.1 µM (inactive) with Malme-3M; > 100 µM (inactive) in the test with SF-295; > 100 µM (inactive) in the test on OVCAR-5; 54.8 µM (inactive) in the test with BT-549. Moreover, the GI50 was > 100 µM (inactive) in the test on SF-539; > 100 µM (inactive) in the test on HL-60; > 100 µM (inactive) in the test on A549; > 100 µM (inactive) in the test on UO-31; greater than 100 µM in the test on HCT-15; > 100 µM (inactive) in the test on 786-0.

In the case of `COc1ccc2c(c1)CCc1c-2[nH]c2ccc(OC)cc12`, the GI50 in the test on SNB-75, with SNB-19, in the test with NCI-H23, in the test with HOP-62, in the test with SK-MEL-2 and in the test with OVCAR-3 was > 100 µM (inactive) each time. Further, the GI50 in the test on K562 was > 100 µM (inactive); in the test with HT-29 it was 7.21 µM (inactive); with Malme-3M, 45.8 µM (inactive); in the test with SF-295 it was > 100 µM (inactive); in the test with OVCAR-5, > 100 µM (inactive); in the test on BT-549, > 100 µM (inactive). Also, the GI50 in the test with NCI-H226 is 36.4 µM (inactive); in the test on A549 it was > 100 µM (inactive); with UO-31, > 100 µM (inactive); in the test with HCT-15, greater than 100 µM; in the test on 786-0, > 100 µM (inactive).

Take `O=C(NN=C(c1ccccc1)c1ccccc1)/C(O)=C/C(=O)c1ccc(Cl)cc1`: the GI50 was 33 µM (inactive) in the test on SNB-75; 38.3 µM (inactive) in the test with SNB-19; 23.2 µM (inactive) in the test on NCI-H23; 45.2 µM (inactive) in the test with HOP-62; 29 µM (inactive) in the test with SK-MEL-2; 30.8 µM (inactive) in the test with OVCAR-3. Besides, the GI50 in the test with K562 is 43.5 µM (inactive); in the test with HT-29 it was 44.3 µM (inactive); in the test on Malme-3M it was 20.7 µM (inactive); in the test with SF-295, 34.7 µM (inactive); in the test with OVCAR-5 it was > 100 µM (inactive); in the test with BT-549 it was 38.1 µM (inactive). In addition, the GI50 in the test with SF-539 was 26.4 µM (inactive); in the test on NCI-H226, 41.2 µM (inactive); in the test on A549 it was 27.7 µM (inactive); in the test on UO-31, 29.8 µM (inactive); with HCT-15, 24.7 µM; in the test with 786-0 it was 37.3 µM (inactive).

Take `N/C(=N\c1ccc(Cl)cc1)NS(=O)(=O)c1ccc(-c2ccccn2)s1`: the GI50 in the test on SNB-75 was 21.8 µM (inactive); in the test on SNB-19, 16.3 µM (inactive); in the test with NCI-H23, 15.9 µM (inactive); with HOP-62, 18.1 µM (inactive); in the test with SK-MEL-2 it was 14.1 µM (inactive); with OVCAR-3, 22.8 µM (inactive). The GI50 was 15.4 µM (inactive) with K562; 18.3 µM (inactive) in the test with HT-29; 12.4 µM (inactive) with Malme-3M; 17.5 µM (inactive) with SF-295; 21.4 µM (inactive) with OVCAR-5; 17.3 µM (inactive) in the test with BT-549. Moreover, the GI50 with SF-539 is 14.9 µM (inactive); in the test with NCI-H226 it was 17.3 µM (inactive); in the test on A549 it was 19.1 µM (inactive); with UO-31 it was 17.7 µM (inactive); in the test on HCT-15, 17.5 µM; with 786-0, 15.2 µM (inactive).

The GI50 is the concentration giving 50% growth inhibition.
